Structures are written as SMILES.

For assay [1], the target named is T1, catalytic domain of human Bub1 (amino acids 704-1085) (Homo sapiens, UniProt O43683).
T1 construct: catalytic domain of human Bub1 (amino acids 704-1085); His6 (N); made in house; host or cells: Hi5 insect cells
In words: Bub1 kinase assay (TR-FRET). Format: biochemical. The following applies: 10 μM ATP, 60 min reaction, pH 7.5; read-out: Biological Assay 1: Bub1 kinase assay median IC50. For orientation: In TR-FRET formats the signal depends on donor and acceptor labels being close together.

In assay [2] the test system is HeLa human cervical tumor cells. In words: Proliferation assay (HeLa cell line). Format: cell-based. The following applies: 96 h, 4 days incubation, crystal violet, read-out: Biological Assay 2: Proliferation assay (HeLa cell line) median IC50.
Assay [3] shares this test system. In words: Proliferation Assay (HeLa+Paclitaxel). Format: cell-based. The following applies: 3 nM paclitaxel, test substance 92 hours; read-out: Biological Assay 3: Proliferation Assay (HeLa + Paclitaxel) IC50.
The test system of assay [4] is Bub1 kinase (histone 2A phosphorylation). In words: H2A Formation-Assay (cell-based mechanistic assay, co-treatment with Nocodazole). The following applies: 16 h, Nocodazole 1 μg/ml together with test compound for 16 h; read-out: Biological Assay 4.1: H2A Formation IC50.

T1 sequence (O43683 704-1085): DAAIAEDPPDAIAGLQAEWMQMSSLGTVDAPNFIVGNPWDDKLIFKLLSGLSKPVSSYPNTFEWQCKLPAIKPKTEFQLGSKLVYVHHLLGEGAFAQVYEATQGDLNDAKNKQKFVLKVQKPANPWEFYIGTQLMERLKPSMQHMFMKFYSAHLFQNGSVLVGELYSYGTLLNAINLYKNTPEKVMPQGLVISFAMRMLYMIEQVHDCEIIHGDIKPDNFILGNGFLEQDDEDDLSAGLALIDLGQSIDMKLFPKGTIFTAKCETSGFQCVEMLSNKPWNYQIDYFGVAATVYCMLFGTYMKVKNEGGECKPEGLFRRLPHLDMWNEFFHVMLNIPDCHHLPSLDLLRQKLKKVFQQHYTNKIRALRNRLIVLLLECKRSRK

For the molecule `COc1cnccc1Nc1nc(-c2nn(Cc3c(F)cc(OCCO)cc3F)c3ccccc23)ncc1OC` [Example 2-1-3, 2-{3,5-difluoro-4-[(3-{5-methoxy-4-[(3-methoxypyridin-4-yl)amino]pyrimidin-2-yl}-1H-indazol-1-yl)methyl]phenoxy}ethanol], the IC50 in assay [1] was found to be 7.1 nM; in assay [2], 1700 nM; in assay [3] it was 63 nM; in assay [4], 43 nM.
The matching figures for `COc1cnc(-c2nn(Cc3c(F)cc(OCCO)cc3F)c3ccccc23)nc1Nc1ccnc(C)c1` [Example 2-1-2, 2-{3,5-difluoro-4-[(3-{5-methoxy-4-[(2-methylpyridin-4-yl)amino]pyrimidin-2-yl}-1H-indazol-1-yl)methyl]phenoxy}ethanol]: 24 nM, 1300 nM, 350 nM and 8.7 nM.
